# Columns and labels:
# [1] = General physical properties: solubility in water; assay type: physicochemical
# Text: 1210.Na. The example compound is a sodium salt of (E)-4-Carboxystyryl-4-chlorobenzylsulfone.
# [2] = Saturated solubility of ON.1210.Na in different solvent systems; assay type: physicochemical; settings: for solubility at 24 h: 24 hours of equilibration; for solubility at 48 h: 48 hours of equilibration
# [3] = Octanol:water partition coefficient; assay type: physicochemical
# Experimental: (§1) A stability indicating HPLC assay is used during the preformulation studies. Preformulation studies include determination of microscopic and macroscopic properties, partition coefficient, pKa, pH-solubility, pH-stability, solid-state characterization and solid-state stability. XRD and thermal analyses re used to characterize the solid and solid-state stability. The solid-state stability as well as the pH stability of the drug is carried out at 75° C.
# [4] = Half life by route of administration and as suspension; assay type: in vivo
# Experimental: When, ON.1210.Na, for example, is administered as a suspension described herein the half life of the drug is on the order of 30-40 hours depending on the specific formulation and its viscosity. This dramatic increase in half-life translates to prolonged exposure to drug over a period of 72 hours and beyond. This increase is possible because of an apparent low dissolution rate of drug from the site of administration.
# [5] = pH-stability study under accelerated conditions; assay type: physicochemical
# Experimental: as §1
# [6] = Stability of solid drug after autoclaving (HPLC); assay type: physicochemical; settings: autoclaved in a crimped vial
# Experimental: A solid drug sample (ON1210), after autoclaving in a crimped vial, is also evaluated for any degradation using the developed HPLC method. The sample, after autoclaving, is used to make a standard solution of 400 μg/mL and injected onto HPLC.
# [7] = pH-solubility study (equilibrium solubility, pKa); assay type: physicochemical; settings: for solubility thermodynamic: aqueous solution (buffer not named), thermodynamic from solid
# Experimental: as §1
# [8] = Solid-state stability of ON.1210.Na at 75° C.; assay type: physicochemical
# Experimental: as §1
# The stability of ON.1210.Na in the solid state is determined by exposing the drug at 75° C. over a prolonged time. The sample is crimped in a 10 mL injection vial and kept at the above temperature. The sample is collected after 15 days and one month and reconstituted with diluting solution and its concentration is determined by HPLC. Appearance of any additional peak in the chromatogram is also noted. A control sample is represented by ON.1210.Na not exposed to 75° C. and reconstituted to a known concentration with diluting solution.
compound,measurement,setting,value
"O=C([O-])c1ccc(/C=C/S(=O)(=O)Cc2ccc(Cl)cc2)cc1.[Na+] [ON.1210.Na, (E)-4-Carboxystyryl-4-chlorobenzylsulfone, Sodium Salt]",solubility,[1],8000 to 10000 µg/mL
same,solubility,"[2]; 0.25% Tween 80 in phosphate buffer, pH 8.45, aqueous with cosolvent or surfactant or cyclodextrin",9.5 mg/mL
same,solubility,"[2]; 0.25% tween 80 in water, pH 8.87, aqueous with cosolvent or surfactant or cyclodextrin",10.5 mg/mL
same,solubility,"[2]; 0.5% Tween 80 in phosphate buffer, pH 8.41, aqueous with cosolvent or surfactant or cyclodextrin",9.8 mg/mL
same,solubility,"[2]; 0.5% tween 80 in water, pH 8.74, aqueous with cosolvent or surfactant or cyclodextrin",10.3 mg/mL
same,solubility,"[2]; 1% (w/v) Povidone K 90 in water, pH 8.69, aqueous with cosolvent or surfactant or cyclodextrin",209 mg/mL
same,solubility,"[2]; 1% PVP C 15, pH 8.86, aqueous with cosolvent or surfactant or cyclodextrin, thermodynamic from solid",26.9 mg/mL
same,solubility,"[2]; 1% PVP C 30, pH 8.02, aqueous with cosolvent or surfactant or cyclodextrin, thermodynamic from solid",25.1 mg/mL
same,solubility,"[2]; 1% Tween 80 in phosphate buffer, pH 8.45, aqueous with cosolvent or surfactant or cyclodextrin",8.9 mg/mL
same,solubility,"[2]; 1% tween 80 in water, pH 8.82, aqueous with cosolvent or surfactant or cyclodextrin",10.1 mg/mL
same,solubility,"[2]; 2% PVP C 15, pH 8.69, aqueous with cosolvent or surfactant or cyclodextrin, thermodynamic from solid",26.9 mg/mL
same,solubility,"[2]; 2% Tween 80 in phosphate buffer, pH 8.39, aqueous with cosolvent or surfactant or cyclodextrin",9.7 mg/mL
same,solubility,"[2]; 2% tween 80 in water, pH 8.78, aqueous with cosolvent or surfactant or cyclodextrin",9 mg/mL
same,solubility,"[2]; 5% (w/v) Povidone K 90 in Water, pH 8.35, aqueous with cosolvent or surfactant or cyclodextrin",152 mg/mL
same,solubility,"[2]; 10% PEG400:water, pH 8.24, aqueous with cosolvent or surfactant or cyclodextrin, thermodynamic from solid",36 mg/mL
same,solubility,"[2]; 20% HPCD:20% PEG 400:60% water, pH 8.2, aqueous with cosolvent or surfactant or cyclodextrin",53.6 mg/mL
same,solubility,"[2]; 25% PEG400:water, pH 8.01, aqueous with cosolvent or surfactant or cyclodextrin, thermodynamic from solid",39 mg/mL
same,solubility,"[2]; 40% HPCD, pH 7.86, aqueous with cosolvent or surfactant or cyclodextrin",109 mg/mL
same,solubility,"[2]; 50% PEG400:Buffer (0.01M), pH 8.2, aqueous with cosolvent or surfactant or cyclodextrin",20.8 mg/mL
same,solubility,"[2]; 50% PEG400:Buffer (0.07M), pH 8.2, aqueous with cosolvent or surfactant or cyclodextrin",23.4 mg/mL
same,solubility,"[2]; 50% PEG400:water, pH 7.53, aqueous with cosolvent or surfactant or cyclodextrin",40 mg/mL
same,solubility,"[2]; 50:50 PEG400:ethanol, pH 8.46, organic solvent or mixture",37 mg/mL
same,solubility,"[2]; 100% ethanol, pH 7.94, organic solvent or mixture",0.9 mg/mL
same,solubility,"[2]; DMA:WATER:Ethanol (1:1:1), aqueous with cosolvent or surfactant or cyclodextrin",46.4 mg/mL
same,solubility,"[2]; NN-Dimethyl Acetamide:Water:PEG 400 (1:2:2), pH 7.9, aqueous with cosolvent or surfactant or cyclodextrin",66.2 mg/mL
same,solubility,"[2]; PEG300:ETH (70:30), pH 8.99, organic solvent or mixture",48.3 mg/mL
same,solubility,"[2]; PEG 300:water (50:50), pH 4.5, aqueous with cosolvent or surfactant or cyclodextrin",30.6 mg/mL
same,solubility,"[2]; PEG400:Benzyl alcohol (50:50), pH 8.19, organic solvent or mixture",51.6 mg/mL
same,solubility,"[2]; PEG400:Ethanol 70:30, organic solvent or mixture",55.5 mg/mL
same,solubility,"[2]; Propylene Glycol, organic solvent or mixture",44 mg/mL
same,solubility,"[2]; Propylene glycol:water (50:50), pH 8.53, aqueous with cosolvent or surfactant or cyclodextrin",41.6 mg/mL
same,solubility at 24 h,"[2]; aqueous with cosolvent or surfactant or cyclodextrin, thermodynamic from solid, 10% cyclodextran",46 mg/mL
same,solubility at 24 h,"[2]; aqueous with cosolvent or surfactant or cyclodextrin, thermodynamic from solid, 20% cyclodextran",62 mg/mL
same,solubility,"[2]; pH 8.21, organic solvent or mixture, PEG300 (IP10 g/kg)",52 mg/mL
same,solubility at 24 h,"[2]; pH 8.32, aqueous with cosolvent or surfactant or cyclodextrin, thermodynamic from solid, 5% cyclodextran",39 mg/mL
same,solubility,"[2]; pH 8.34, organic solvent or mixture, 100% PEG 400 (12 g/kg)",26 mg/mL
same,solubility at 48 h,"[2]; pH 8.35, aqueous with cosolvent or surfactant or cyclodextrin, thermodynamic from solid, 20% cyclodextran",58 mg/mL
same,solubility at 48 h,"[2]; pH 8.41, aqueous with cosolvent or surfactant or cyclodextrin, thermodynamic from solid, 10% cyclodextran",41 mg/mL
same,solubility at 48 h,"[2]; pH 8.52, aqueous with cosolvent or surfactant or cyclodextrin, thermodynamic from solid, 5% cyclodextran",32 mg/mL
same,solubility,"[2]; water, pH 8.4, water",11.8 mg/mL
same,octanol:water partition coefficient,[3],1.28-2.87
same,half-life,"[4]; in vivo, administered as a suspension",1800 to 2400 min
same,half life,[4]; intramuscular in contrast to intravenous,increases significantly
same,half life,"[4]; subcutaneous administration, compared with intramuscular",increases even further
same,pH-stability profile,"[5]; 75° C., Sodium Salt",better stability at neutral and biological pH but degradation is rapid under acidic condition
same,stability in aqueous environment,[5]; biological pH,quite stable in an aqueous environment at biological pH
same,degradation rate order,"[5]; pH-stability study, Sodium Salt",pseudo-first-order rate
same,stability of bulk solid drug,[6],stable under the autoclaving conditions
same,solubility thermodynamic,"[7]; aqueous buffer, pH 4.0",0.154 µg/mL
same,solubility thermodynamic,"[7]; aqueous buffer, pH 5.0",37.9 µg/mL
same,solubility thermodynamic,"[7]; aqueous buffer, pH 6.0",715 µg/mL
same,solubility thermodynamic,"[7]; aqueous buffer, pH 8.0",16800 µg/mL
same,solubility thermodynamic,"[7]; aqueous buffer, pH 9.0",23300 µg/mL
same,solubility thermodynamic,"[7]; pH 7.4, aqueous buffer",11100 µg/mL
same,pKa,[7]; calculated from pH-solubility studies,2.85 ± 0.6
same,accelerated solid-state stability of bulk drug substance,[8],no evidence of degradation

# From patent US20090247624A1, “FORMULATIONS OF RADIOPROTECTIVE ALPHA BETA UNSATURATED ARYL SULFONES” (Onconova Therapeutics Inc., priority 2006, published 2009)
